For this experiment, the system named is K98450-129-R-PDC complex spheroid growth, percent test/control. Description: Anticancer human tumor K98450-129-R-PDC patient-derived colon adenocarcinoma cell line growth inhibition [RAS]. To be noted: for viability, T/C: stronger effect = lower value. An outline of the steps:
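Tumour cells grown as complex spheroids with HUVEC endothelial cells and mesenchymal stem cells, treated with RAS pathway inhibitor combinations. Each agent spans half-log steps from near clinical Cmax, or 10 microM where Cmax is unknown.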

The mark [1] stands for this setting: curve of first compound, second compound 0.0316 µM.
Where [2] appears, read: curve of first compound, second compound 0.1 µM.
Where [3] appears, read: curve of first compound, second compound 0.316 µM.
The mark [4] stands for this setting: curve of first compound, second compound 1 µM.
[5] abbreviates: curve of first compound, second compound 3.16 µM.
The mark [6] stands for this setting: curve of first compound, second compound 10 µM.
Setting [7] is: second compound 0.0316 µM, first compound 0.0316 µM.
The mark [8] stands for this setting: second compound 0.0316 µM, first compound 0.1 µM.
The mark [9] stands for this setting: second compound 0.0316 µM, first compound 0.316 µM.
The mark [10] stands for this setting: second compound 0.0316 µM, first compound 1 µM.
Setting [11] is: second compound 0.0316 µM, first compound 3.16 µM.
Where [12] appears, read: second compound 0.0316 µM, first compound 10 µM.
The mark [13] stands for this setting: second compound 0.1 µM, first compound 0.0316 µM.
Setting [14] is: second compound 0.1 µM, first compound 0.1 µM.
[15] abbreviates: second compound 0.1 µM, first compound 0.316 µM.
Where [16] appears, read: second compound 0.1 µM, first compound 1 µM.
The mark [17] stands for this setting: second compound 0.1 µM, first compound 3.16 µM.
Where [18] appears, read: second compound 0.1 µM, first compound 10 µM.
[19] abbreviates: second compound 0.316 µM, first compound 0.0316 µM.
The mark [20] stands for this setting: second compound 0.316 µM, first compound 0.1 µM.
Where [21] appears, read: second compound 0.316 µM, first compound 0.316 µM.
Where [22] appears, read: second compound 0.316 µM, first compound 1 µM.
The mark [23] stands for this setting: second compound 0.316 µM, first compound 3.16 µM.
Setting [24] is: second compound 0.316 µM, first compound 10 µM.
The mark [25] stands for this setting: second compound 1 µM, first compound 0.0316 µM.
[26] abbreviates: second compound 1 µM, first compound 0.1 µM.
Where [27] appears, read: second compound 1 µM, first compound 0.316 µM.
Setting [28] is: second compound 1 µM, first compound 1 µM.
The mark [29] stands for this setting: second compound 1 µM, first compound 3.16 µM.
Where [30] appears, read: second compound 1 µM, first compound 10 µM.
The mark [31] stands for this setting: second compound 3.16 µM, first compound 0.0316 µM.
Setting [32] is: second compound 3.16 µM, first compound 0.1 µM.
Where [33] appears, read: second compound 3.16 µM, first compound 0.316 µM.
Setting [34] is: second compound 3.16 µM, first compound 1 µM.
Where [35] appears, read: second compound 3.16 µM, first compound 3.16 µM.
Where [36] appears, read: second compound 3.16 µM, first compound 10 µM.
Setting [37] is: second compound 10 µM, first compound 0.0316 µM.
Where [38] appears, read: second compound 10 µM, first compound 0.1 µM.
Setting [39] is: second compound 10 µM, first compound 0.316 µM.
Where [40] appears, read: second compound 10 µM, first compound 1 µM.
The mark [41] stands for this setting: second compound 10 µM, first compound 3.16 µM.
Where [42] appears, read: second compound 10 µM, first compound 10 µM.

pIC50: −log10 of the molar value. Where “and” joins values, the source holds several entries; their conditions need not be identical. Equal values may be shown once.
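Further: spheroids exposed to agents for seven days before the viability readout.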
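Wherever viability, T/C is given: luminescence used as a proxy for viable cell amount.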

As for `CCC(CC)c1cc(NC2CCC(N)C2)n2nccc2n1` (stereo not given) + C#Cc1c(F)ccc2cc(O)cc(-c3ncc4c(N5CC6CCC(C5)N6)nc(OCC56CCCN5CC(F)C6)nc4c3F)c12, the pIC50 by setting is: under setting [1], 5.22; under setting [2], 5.26; under setting [3], 5.21; under setting [4], 5.24; under setting [5], 5.27; under setting [6], 5.33. Besides, the viability, T/C is 99.8% under setting [7]; 102% under setting [8]; 103% under setting [9]; 106% under setting [10]; 93.7% under setting [11]; 16.3% under setting [12]. Besides, the viability, T/C by setting is: under setting [13], 105%; under setting [14], 108%; under setting [15], 102%; under setting [16], 98.3%; under setting [17], 81.7%; under setting [18], 16.9%. Moreover, the viability, T/C by setting is: under setting [19], 105%; under setting [20], 117%; under setting [21], 108%; under setting [22], 97.7%; under setting [23], 94.8%; under setting [24], 20%. Besides, the viability, T/C was 104% under setting [25]; 99.8% under setting [26]; 99.4% under setting [27]; 101% under setting [28]; 82.4% under setting [29]; 19.1% under setting [30]. Besides, the viability, T/C under setting [31] is 91.7%; the viability, T/C under setting [32] was 97.1%; the viability, T/C under setting [33] is 94.9%; the viability, T/C under setting [34] is 84.7%; the viability, T/C under setting [35] is 79.1%; the viability, T/C under setting [36] was 18.9%. The viability, T/C was 84.2% under setting [37]; 90.2% under setting [38]; 88.2% under setting [39]; 89.4% under setting [40]; 68.5% under setting [41]; 14.1% under setting [42].
For `CC(Nc1ccc2c(c1)OCCn1cc(N3C(=O)OCC3C(F)F)nc1-2)C(N)=O` (stereo not given) + C#Cc1c(F)ccc2cc(O)cc(-c3ncc4c(N5CC6CCC(C5)N6)nc(OCC56CCCN5CC(F)C6)nc4c3F)c12, the pIC50 under setting [1] is < 5.00; the pIC50 under setting [2] is < 5.00; the pIC50 under setting [3] is < 5.00; the negative-log IC50 (pIC50) under setting [4] is < 5.00; the pIC50 under setting [5] is < 5.00; the pIC50 under setting [6] is < 5.00. Moreover, the viability, T/C runs as follows: under setting [7], 105%; under setting [8], 94.6%; under setting [9], 95.1%; under setting [10], 94.4%; under setting [11], 83.6%; under setting [12], 73.8%. The viability, T/C under setting [13] was 102%; the viability, T/C under setting [14] is 98.1%; the viability, T/C under setting [15] was 88.3%; the viability, T/C under setting [16] was 95.1%; the viability, T/C under setting [17] is 83%; the viability, T/C under setting [18] is 70.4%. The viability, T/C is, setting by setting: under setting [19], 114%; under setting [20], 98.1%; under setting [21], 95.7%; under setting [22], 91.1%; under setting [23], 84.3%; under setting [24], 72.1%. The viability, T/C by setting is: under setting [25], 102%; under setting [26], 103%; under setting [27], 94.8%; under setting [28], 84%; under setting [29], 81.8%; under setting [30], 64.3%. For the same compound, the viability, T/C was 89.8% under setting [31]; 93.3% under setting [32]; 88.4% under setting [33]; 74.2% under setting [34]; 72.5% under setting [35]; 68.4% under setting [36]. For the same compound, the viability, T/C is, setting by setting: under setting [37], 80.5%; under setting [38], 83.5%; under setting [39], 82.2%; under setting [40], 68.1%; under setting [41], 64.8%; under setting [42], 57.3%.
For `CC(=O)OC12COC1CC(O)C1(C)C(=O)C(O)C3=C(C)C(OC(=O)C(O)C(NC(=O)OC(C)(C)C)c4ccccc4)CC(O)(C(OC(=O)c4ccccc4)C21)C3(C)C` (stereo not given), the viability, T/C is 104% [middle of 4 runs] (compound 0.0316 µM); 65.8% [middle of 4 runs] (compound 0.316 µM); 50.8% [middle of 4 runs] (compound 1 µM); 42.5% [middle of 4 runs] (compound 3.16 µM); 43.9% [middle of 4 runs] (compound 10 µM).
`CC(Nc1ccc2c(c1)OCCn1cc(N3C(=O)OCC3C(F)F)nc1-2)C(N)=O` (stereo not given): the viability, T/C runs as follows: (compound 0.0316 µM) 99.5% [middle of 4 runs]; (compound 0.1 µM) 91.6% [middle of 4 runs]; (compound 0.316 µM) 91.2% [middle of 4 runs]; (compound 1 µM) 88.9% [middle of 4 runs]; (compound 3.16 µM) 81.3% [middle of 4 runs]; (compound 10 µM) 73.7% [middle of 4 runs]. Further, where the note is “curve of compound”, the pIC50 is < 5.00.
With `CC(C)NCC(C(=O)N1CCN(c2ncnc3c2C(C)CC3O)CC1)c1ccc(Cl)cc1` (stereo not given) + C#Cc1c(F)ccc2cc(O)cc(-c3ncc4c(N5CC6CCC(C5)N6)nc(OCC56CCCN5CC(F)C6)nc4c3F)c12, the pIC50 is < 5.00 under setting [1]; < 5.00 under setting [2]; < 5.00 under setting [3]; < 5.00 under setting [4]; < 5.00 under setting [5]; < 5.00 under setting [6]. Also, the viability, T/C is 110% under setting [7]; 106% under setting [8]; 92.9% under setting [9]; 99.2% under setting [10]; 104% under setting [11]; 96.7% under setting [12]. In addition, the viability, T/C by setting is: under setting [13], 110%; under setting [14], 96.9%; under setting [15], 106%; under setting [16], 98%; under setting [17], 113%; under setting [18], 103%. Further, the viability, T/C reads like this: under setting [19], 105%; under setting [20], 96.1%; under setting [21], 110%; under setting [22], 97.3%; under setting [23], 104%; under setting [24], 98.6%. Also, the viability, T/C runs as follows: under setting [25], 99.5%; under setting [26], 96.8%; under setting [27], 96.1%; under setting [28], 95.7%; under setting [29], 104%; under setting [30], 99.2%. The viability, T/C reads like this: under setting [31], 95.7%; under setting [32], 86.5%; under setting [33], 97.3%; under setting [34], 93.8%; under setting [35], 98.7%; under setting [36], 88.2%. The viability, T/C is, setting by setting: under setting [37], 83.9%; under setting [38], 82.6%; under setting [39], 81.9%; under setting [40], 85.9%; under setting [41], 91.5%; under setting [42], 81.9%.
Turning to `CC1(O)CCCC1n1c(=O)c(C(F)F)cc2cnc(NC3CCN(S(C)(=O)=O)CC3)nc21` (stereo not given), the viability, T/C by setting is: (compound 0.0316 µM) 102% (2×) and 99.8% and 90.2%; (compound 0.1 µM) 95.5% [middle of 4 runs]; (compound 0.316 µM) 91.1% [middle of 4 runs]; (compound 1 µM) 79% [middle of 4 runs]; (compound 3.16 µM) 79% [middle of 4 runs]; (compound 10 µM) 73.3% [middle of 4 runs]. In addition, the pIC50 (curve of compound) was < 5.00.
`CCN1CCN(Cc2ccc(Nc3ncc(F)c(-c4cc(F)c5nc(C)n(C(C)C)c5c4)n3)nc2)CC1`: the viability, T/C (compound 0.00316 µM) is 103% [middle of 4 runs]; the viability, T/C (compound 0.01 µM) is 99.4% [middle of 4 runs]; the viability, T/C (compound 0.0316 µM) is 96.8% [middle of 4 runs]; the viability, T/C (compound 0.1 µM) was 97.3% [middle of 4 runs]. For the same compound, the pIC50 (curve of compound) was < 6.00.

The values are drawn from PubChem BioAssay AID2060891 (Molecular Pharmacology Branch, DTP, NCI, 2025).
